Converted amounts (≈) assume the structure as drawn. Read-outs that look alike come from different tables or passages of the source.
Experiments:
A. baumannii ATCC 19,606 [1] = assay: microbe, parasite or virus in culture; format: cell-based, Acinetobacter baumannii
From the text: (§1) Ten strains of both Gram-positive and -negative bacteria, including Staphylococcus aureus ATCC 25,923, S. epidermidis ATCC 12,228, Bacillus cereus ATCC 11,778, Listeria monocytogenes 10403S, Salmonella typhimurium ATCC 13,311, Pseudomonas aeruginosa ATCC 27,853, Shigella sonnei ATCC 11,060, A. baumannii ATCC 19,606, Escherichia coli ATCC 25,922 and E. coli O157:H7, were used in this study. Eight clinical isolates of multidrug-resistant (MDR) and extensively drug-resistant (XDR) A. baumannii, isolated from human (blood, sputum, respiratory sample, sterile site sample and urine), were kindly provided by Asst. Prof. Dr. Sakawrat Kanthawong (Faculty of Medicine, Khon Kaen University, Thailand) (Table S1). All bacterial strains, excluding L. monocytogenes 10403S and E. coli, were cultured in tryptic soy broth (TSB). L. monocytogenes was grown in TSB supplemented with 0.6% yeast extract (TSB-YE), and E. coli was cultured in Luria broth (LB). All of bacteria were cultured at 37 °C with continuous shaking at 220 rpm.
(§2) Minimum inhibitory concentration (MIC) of peptides and antibiotics was assessed by a modified version of the broth microdilution method from the Clinical and Laboratory Standards Institute (CLSI) as previously described. In brief, mid-log phase growths of microbial strains were cultured in Müeller-Hinton broth (MHB) with an initial inoculum of 2–8 × 10^5 CFU/mL. Bacteria suspensions were incubated in sterile 96-well plates with test agents at desired concentrations. […] Minimum bactericidal concentration (MBC) determination was performed using a modified version of the colony count assay. In brief, fifty µl of all non-turbid wells from MIC experiments were spread on agar plates. The MBC value was defined as the lowest concentration of peptides with no colony growth on the plate. All assays were performed in triplicate.

[2] = test system: Bacillus cereus ATCC 11,778; format: cell-based; details: B. cereus ATCC 11,778; broth microdilution, MHB, 24 h, 37 °C, triplicate
From the text: as §1, §2

[3] = test system: Escherichia coli O157:H7 MT strain; format: cell-based; details: E. coli O157:H7 MT strain; broth microdilution, MHB, 24 h, 37 °C, triplicate
From the text: as §1, §2

[4] = test system: Listeria monocytogenes 10403S; format: cell-based; details: L. monocytogenes 10403S; broth microdilution, MHB, 24 h, 37 °C, triplicate
From the text: as §1, §2

[5] = test system: Pseudomonas aeruginosa ATCC 27,853; format: cell-based; details: P. aeruginosa ATCC 27,853; broth microdilution, MHB, 24 h, 37 °C, triplicate
From the text: as §1, §2

[6] = test system: Salmonella Typhimurium ATCC 13,311; format: cell-based; details: S. Typhimurium ATCC 13,311; broth microdilution, MHB, 24 h, 37 °C, triplicate
From the text: as §1, §2

[7] = test system: Shigella sonnei ATCC 11,060; format: cell-based; details: S. sonnei ATCC 11,060; broth microdilution, MHB, 24 h, 37 °C, triplicate
From the text: as §1, §2

[8] = test system: Staphylococcus epidermidis ATCC 12,228; format: cell-based; details: S. epidermidis ATCC 12,228; broth microdilution, MHB, 24 h, 37 °C, triplicate
From the text: as §1, §2

[9] = test system: mouse fibroblast (L929) cells; assay: In vitro cytotoxicity assay (MTT); format: cell-based; details: 24 h, peptide 62.5 µg/mL
Method: The colorimetric 3-(4,5 dimethylthiazol-2-yl)-2,5-diphenyltetrazolium bromide (MTT; Invitrogen) dye reduction assay was used to determine the cytotoxicity of peptides on mouse fibroblast (L929) cells (NCTC clone 929) according to a modified MTT assay. L929 cells were cultured in Dulbecco’s Modified Eagle Medium (DMEM; Gibco) containing 10% fetal bovine serum (FBS; Gibco) and 100 U/ml penicillin–streptomycin in a fully humidified atmosphere of 95% air and 5% CO2 at 37 °C. The cells (10^5 cells/well) were seeded on 96-well plates and incubated with serially diluted peptide (0.98 to 250 μg/ml) for 24 h. At the end of incubation period, MTT solution (100 µl, 0.4 mg/ml) was added to each well and incubated for 4 h. The supernatants were removed and replaced by 100 µl of DMSO to dissolve the purple formazan crystals. Absorbance was measured using a MultiskanTM FC microplate reader at a wavelength of 570 nm. Cells without peptides served as negative controls. Cell viability (percentage) was calculated using the following equation: %Cell viability=OD570of treated sample-ODBlank/OD570of control-ODBlank×100%

[10] = test system: A. baumannii A-8.2–1 (XDR); assay: microbe, parasite or virus in culture; format: cell-based, Acinetobacter baumannii; details: Acinetobacter baumannii
From the text: as §1, §2

[11] = test system: A. baumannii B-8.1–1 (MDR); assay: microbe, parasite or virus in culture; format: cell-based, Acinetobacter baumannii; details: Acinetobacter baumannii
From the text: as §1, §2

[12] = test system: A. baumannii B-8.1–2 (MDR); assay: microbe, parasite or virus in culture; format: cell-based, Acinetobacter baumannii; details: Acinetobacter baumannii
From the text: as §1, §2

[13] = test system: A. baumannii B-8.2–2 (XDR); assay: microbe, parasite or virus in culture; format: cell-based, Acinetobacter baumannii; details: Acinetobacter baumannii
From the text: as §1, §2

[14] = test system: A. baumannii C-8.1–2 (MDR); assay: microbe, parasite or virus in culture; format: cell-based, Acinetobacter baumannii; details: Acinetobacter baumannii
From the text: as §1, §2

[15] = test system: A. baumannii C-8.2–1 (XDR); assay: microbe, parasite or virus in culture; format: cell-based, Acinetobacter baumannii; details: Acinetobacter baumannii
From the text: as §1, §2

A. baumannii ATCC 19,606 [16] = assay: microbe, parasite or virus in culture; details: for fold increase of MIC: serial passages at half-MIC
Method: A. baumannii ATCC 19,606 was adjusted to approximately 10^6 CFU/ml in MHB. […] After 24 h incubation, bacterial suspensions of the wells at half-MIC concentration of tested agent were taken and washed 2 times with MHB to prepare the next initial-passage of bacteria. Twenty repeat passages were performed for each tested compound. Along with the test, a negative control was included: the MIC value of bacteria cultured in MHB-deionized water after 20 passages.

[17] = test system: A. baumannii isolate A-8.2-1; assay: Disk diffusion test (CLSI), antibiotic susceptibility profile; format: cell-based, Acinetobacter baumannii; details: CLSI breakpoints
Method: (§3) ^aAntibiotic susceptibility profile of all isolated strains was evaluated by disk diffusion test, using the standard protocol guide of the Clinical and Laboratory Standards Institute (CLSI), and interpreted as S: Susceptible to standard dosing regimen; I: Intermediate; R: Resistant (in accordance with the criteria of CLST breakpoints).

[18] = test system: A. baumannii isolate B-8.1-1; assay: as above; format: cell-based, Acinetobacter baumannii; details: CLSI breakpoints
Method: as §3

[19] = test system: A. baumannii isolate B-8.1-2; assay: as above; format: cell-based, Acinetobacter baumannii; details: CLSI breakpoints
Method: as §3

[20] = test system: A. baumannii isolate B-8.2-2; assay: as above; format: cell-based, Acinetobacter baumannii; details: CLSI breakpoints
Method: as §3

[21] = test system: A. baumannii isolate C-8.1-2; assay: as above; format: cell-based, Acinetobacter baumannii; details: CLSI breakpoints
Method: as §3

[22] = test system: A. baumannii isolate C-8.2-1; assay: as above; format: cell-based, Acinetobacter baumannii; details: CLSI breakpoints
Method: as §3

[23] = test system: A. baumannii isolate D-10.1-1; assay: as above; format: cell-based, Acinetobacter baumannii; details: CLSI breakpoints
Method: as §3

[24] = test system: A. baumannii isolate D-10.1-2; assay: as above; format: cell-based, Acinetobacter baumannii; details: CLSI breakpoints
Method: as §3

CC[C@H](C)[C@H](NC(=O)CN)C(=O)NCC(=O)N[C@@H](C)C(=O)N[C@H](C(=O)N[C@@H](CC(C)C)C(=O)N[C@@H](CCCCN)C(=O)N[C@H](C(=O)N[C@@H](CC(C)C)C(=O)N[C@H](C(=O)N[C@H](C(=O)NCC(=O)N[C@@H](CC(C)C)C(=O)N1CCC[C@H]1C(=O)N[C@@H](C)C(=O)N[C@@H](CC(C)C)C(=O)N[C@H](C(=O)N[C@@H](CO)C(=O)N[C@@H](Cc1c[nH]c2ccccc12)C(=O)N[C@H](C(=O)N[C@@H](CCCCN)C(=O)N[C@@H](CCCNC(=N)N)C(=O)N[C@@H](CCCCN)C(=O)N[C@@H](CCCNC(=N)N)C(=O)N[C@@H](CCC(N)=O)C(=O)N[C@@H](CCC(N)=O)C(N)=O)[C@@H](C)CC)[C@@H](C)CC)[C@@H](C)O)[C@@H](C)O)C(C)C)C(C)C [Melittin, reference compound]
MIC (A. baumannii ATCC 19,606 [1]; A. baumannii ATCC 19,606, broth microdilution (modified CLSI), MHB, 2–8 × 10^5 CFU/mL, 24 h, 37 °C, triplicate): 3.91 µg/mL (≈ 1.37 µM)
MIC [2]: 7.81 µg/mL (≈ 2.74 µM)
MIC [3]: 7.81 µg/mL (≈ 2.74 µM)
MIC [4]: 3.91 µg/mL (≈ 1.37 µM)
MIC [5]: 7.81 µg/mL (≈ 2.74 µM)
MIC [6]: 3.91 µg/mL (≈ 1.37 µM)
MIC [7]: 3.91 µg/mL (≈ 1.37 µM)
MIC [8]: 3.91 µg/mL (≈ 1.37 µM)
cell viability [9]: less than 5%

C[C@@H](O)[C@H]1C(=O)N2C(C(=O)O)=C(S[C@@H]3CN[C@H](C(=O)N(C)C)C3)[C@H](C)[C@H]12 [Meropenem]
MBC [10]: 62.5 µg/mL (≈ 163 µM)
MIC [10]: 62.5 µg/mL (≈ 163 µM)
MBC (A. baumannii ATCC 19,606 [1]; Acinetobacter baumannii, ATCC19): 0.98 µg/mL (≈ 2.56 µM)
MIC (A. baumannii ATCC 19,606 [1]; Acinetobacter baumannii, ATCC19, 24 h): 0.98 µg/mL (≈ 2.56 µM)
MBC [11]: 15.6 µg/mL (≈ 40.8 µM)
MIC [11]: 0.98 µg/mL (≈ 2.56 µM)
MBC [12]: 125 µg/mL (≈ 326 µM)
MIC [12]: 125 µg/mL (≈ 326 µM)
MBC [13]: 125 µg/mL (≈ 326 µM)
MIC [13]: 125 µg/mL (≈ 326 µM)
MBC [14]: 125 µg/mL (≈ 326 µM)
MIC [14]: 125 µg/mL (≈ 326 µM)
MBC [15]: 250 µg/mL (≈ 652 µM)
MIC [15]: 125 µg/mL (≈ 326 µM)
MIC (A. baumannii ATCC 19,606 [16]; Acinetobacter baumannii, ATCC19, 24 h, read-out: MIC after 20 passages): 15.6 µg/mL (≈ 40.8 µM)
fold increase in MIC compared to the first passage (A. baumannii ATCC 19,606 [16]; after passage 20): 16 fold
fold increase of MIC (A. baumannii ATCC 19,606 [16]; day 4): 2 fold
fold increase of MIC (A. baumannii ATCC 19,606 [16]; day 6): 4 fold
fold increase of MIC (A. baumannii ATCC 19,606 [16]; day 11): eight
Antibiotic susceptibility profile [17]: R
Antibiotic susceptibility profile [18]: S
Antibiotic susceptibility profile [19]: R
Antibiotic susceptibility profile [20]: R
Antibiotic susceptibility profile [21]: R
Antibiotic susceptibility profile [22]: R
Antibiotic susceptibility profile [23]: R
Antibiotic susceptibility profile [24]: R

— paper PMC9508196 (Scientific Reports, 2022)
